These results are taken from US20250144094A1 (Erasca, Inc., priority 2021, published 2025).

pIC50: −log10 of the molar value. Bounds are passed on as bounds.

Recombinant human ULK1 (1-649), sequence (O75385 1-649): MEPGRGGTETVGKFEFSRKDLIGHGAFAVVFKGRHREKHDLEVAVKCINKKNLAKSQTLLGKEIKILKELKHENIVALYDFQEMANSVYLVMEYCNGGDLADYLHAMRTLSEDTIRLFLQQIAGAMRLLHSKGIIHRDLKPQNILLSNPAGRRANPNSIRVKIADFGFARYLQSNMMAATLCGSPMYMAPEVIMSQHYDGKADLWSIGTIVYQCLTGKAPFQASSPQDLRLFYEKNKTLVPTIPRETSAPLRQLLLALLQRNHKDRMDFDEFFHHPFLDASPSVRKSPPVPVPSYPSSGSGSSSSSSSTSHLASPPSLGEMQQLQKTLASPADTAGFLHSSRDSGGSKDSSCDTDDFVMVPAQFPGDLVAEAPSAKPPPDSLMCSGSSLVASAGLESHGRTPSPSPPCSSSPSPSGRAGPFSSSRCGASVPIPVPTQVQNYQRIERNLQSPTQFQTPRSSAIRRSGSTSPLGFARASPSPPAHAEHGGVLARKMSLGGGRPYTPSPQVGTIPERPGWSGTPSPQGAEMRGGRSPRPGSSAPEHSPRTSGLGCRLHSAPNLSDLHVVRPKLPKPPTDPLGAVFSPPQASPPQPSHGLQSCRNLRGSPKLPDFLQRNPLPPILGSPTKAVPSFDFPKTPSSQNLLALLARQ

This experiment has as its target Recombinant human ULK1 (1-649) (Homo sapiens (Human), UniProt O75385). Briefly: ULK1 ADP Glo kinase activity assay, new method (ULKtide peptide substrate). Particulars: 25° C., 40 minutes, read-out: ULK1 biochemical IC50. The method, boiled down:
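Kinase activity was read as ADP production (ADP-Glo, luminescence 30 min after detection reagent) following a 40-min, 25 °C reaction of Sf9-expressed GST-ULK1 (1-649) with ULKtide substrate and ATP. Compounds ran as 12-point series starting at 10 μM; four-parameter curve fitting versus DMSO wells gave IC50.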
(In general: ADP-Glo turns the ADP formed in a reaction into a luminescent signal.)
By pIC50 is commonly meant −log10 of the IC50, conventionally taken in molar units. Consider `CCN1CCc2cc(Nc3ncc(C(F)(F)F)c(-c4cc5c(s4)C(=O)N(C4CC4)CCS5(=O)=O)n3)c(C(C)C)cc2C1` [Example 267, 4-cyclopropyl-7-(2-((2-ethyl-7-isopropyl-1,2,3,4-tetrahydroisoquinolin-6-yl)amino)-5-(trifluoromethyl)pyrimidin-4-yl)-3,4-dihydrothieno[2,3-f][1,4]thiazepin-5(2H)-one 1,1-dioxide], for which the pIC50 is not below 8.30.

For `CC(C)c1cc2c(cc1Nc1ncc(C(F)(F)F)c(-c3cc4c(s3)C(=O)N(C3CC3)CCS4(=O)=O)n1)CCN(CC1CC1)C2` [Example 268, 4-cyclopropyl-7-(2-((2-(cyclopropylmethyl)-7-isopropyl-1,2,3,4-tetrahydroisoquinolin-6-yl)amino)-5-(trifluoromethyl)pyrimidin-4-yl)-3,4-dihydrothieno[2,3-f][1,4]thiazepin-5(2H)-one 1,1-dioxide], the negative-log IC50 (pIC50) is not below 8.30.

Regarding `CC(C)c1cc2c(cc1Nc1ncc(C(F)(F)F)c(-c3cc4c(s3)C(=O)N(C3CC3)CCS4(=O)=O)n1)CCN(CC1COC1)C2` [Example 269, 4-cyclopropyl-7-(2-((7-isopropyl-2-(oxetan-3-ylmethyl)-1,2,3,4-tetrahydroisoquinolin-6-yl)amino)-5-(trifluoromethyl)pyrimidin-4-yl)-3,4-dihydrothieno[2,3-f][1,4]thiazepin-5(2H)-one 1,1-dioxide], the negative-log IC50 (pIC50) is not below 8.30.

`O=C1c2sc(-c3nc(Nc4cc5c(cc4C4CC4)CCNC5)ncc3C(F)(F)F)cc2S(=O)(=O)CCN1C1COC1` [Example 270, 7-(2-((6-cyclopropyl-1,2,3,4-tetrahydroisoquinolin-7-yl)amino)-5-(trifluoromethyl)pyrimidin-4-yl)-4-(oxetan-3-yl)-3,4-dihydrothieno[2,3-f][1,4]thiazepin-5(2H)-one 1,1-dioxide]: the pIC50 was not below 8.30.

Turning to `CCc1cc(N2CCN(CC)CC2)ccc1Nc1ncc(C(F)(F)F)c(-c2cc3c(s2)C(=O)N(C2CC2)CCS3(=O)=O)n1` [Example 271, 4-cyclopropyl-7-(2-((2-ethyl-4-(4-ethylpiperazin-1-yl)phenyl)amino)-5-(trifluoromethyl)pyrimidin-4-yl)-3,4-dihydrothieno[2,3-f][1,4]thiazepin-5(2H)-one 1,1-dioxide], the negative-log IC50 (pIC50) is not below 8.30.

As for `CCc1cc(N2CCN(C(C)C)CC2)ccc1Nc1ncc(C(F)(F)F)c(-c2cc3c(s2)C(=O)N(C2CC2)CCS3(=O)=O)n1` [Example 272, 4-cyclopropyl-7-(2-((2-ethyl-4-(4-isopropylpiperazin-1-yl)phenyl)amino)-5-(trifluoromethyl)pyrimidin-4-yl)-3,4-dihydrothieno[2,3-f][1,4]thiazepin-5(2H)-one 1,1-dioxide], the negative logarithm of the IC50 (pIC50) is not below 8.30.

`O=C1c2sc(-c3nc(Nc4cc5c(cc4OC(F)(F)F)CNCC5)ncc3C(F)(F)F)cc2S(=O)(=O)CCN1C1CC1` [Example 273, 4-cyclopropyl-7-(2-((7-(trifluoromethoxy)-1,2,3,4-tetrahydroisoquinolin-6-yl)amino)-5-(trifluoromethyl)pyrimidin-4-yl)-3,4-dihydrothieno[2,3-f][1,4]thiazepin-5(2H)-one 1,1-dioxide]: the negative logarithm of the IC50 (pIC50) is not below 8.30.

As for `CCc1cc2c(cc1Nc1ncc(C(F)(F)F)c(-c3cc4c(s3)C(=O)N(C3COC3)CCS4(=O)=O)n1)CCN(CC1CC1)C2` [Example 274, 7-(2-((2-(cyclopropylmethyl)-7-ethyl-1,2,3,4-tetrahydroisoquinolin-6-yl)amino)-5-(trifluoromethyl)pyrimidin-4-yl)-4-(oxetan-3-yl)-3,4-dihydrothieno[2,3-f][1,4]thiazepin-5(2H)-one 1,1-dioxide], the pIC50 was not below 8.30.

For the compound `CCc1cc2c(cc1Nc1ncc(C(F)(F)F)c(-c3cc4c(s3)C(=O)N(C3COC3)CCS4(=O)=O)n1)CCN(CC1COC1)C2` [Example 275, 7-(2-((7-ethyl-2-(oxetan-3-ylmethyl)-1,2,3,4-tetrahydroisoquinolin-6-yl)amino)-5-(trifluoromethyl)pyrimidin-4-yl)-4-(oxetan-3-yl)-3,4-dihydrothieno[2,3-f][1,4]thiazepin-5(2H)-one 1,1-dioxide], the pIC50 was not below 8.30.

For the compound `N#CCN1CCc2cc(Nc3ncc(C(F)(F)F)c(-c4cc5c(s4)C(=O)N(C4CC4)CCS5(=O)=O)n3)c(C3CC3)cc2C1` [Example 276, 2-(7-cyclopropyl-6-((4-(4-cyclopropyl-1,1-dioxido-5-oxo-2,3,4,5-tetrahydrothieno[2,3-f][1,4]thiazepin-7-yl)-5-(trifluoromethyl)pyrimidin-2-yl)amino)-3,4-dihydroisoquinolin-2(1H)-yl)acetonitrile], the pIC50 was 7.30 to 8.00.

For `CCc1cc2c(cc1Nc1ncc(C(F)(F)F)c(-c3cc4c(s3)C(=O)N(C3CC3)CCS4(=O)=O)n1)CCN(CC1COC1)C2` [Example 277, 4-cyclopropyl-7-(2-((7-ethyl-2-(oxetan-3-ylmethyl)-1,2,3,4-tetrahydroisoquinolin-6-yl)amino)-5-(trifluoromethyl)pyrimidin-4-yl)-3,4-dihydrothieno[2,3-f][1,4]thiazepin-5(2H)-one 1,1-dioxide], the pIC50 is not below 8.30.

With `CC1(CN2CCc3cc(Nc4ncc(C(F)(F)F)c(-c5cc6c(s5)C(=O)N(C5CC5)CCS6(=O)=O)n4)c(C4CC4)cc3C2)COC1` [Example 279, 4-cyclopropyl-7-(2-((7-cyclopropyl-2-((3-methyloxetan-3-yl)methyl)-1,2,3,4-tetrahydroisoquinolin-6-yl)amino)-5-(trifluoromethyl)pyrimidin-4-yl)-3,4-dihydrothieno[2,3-f][1,4]thiazepin-5(2H)-one 1,1-dioxide], the negative-log IC50 (pIC50) is not below 8.30.

With `CCc1cc(N2CCN(CC(N)=O)CC2)ccc1Nc1ncc(C(F)(F)F)c(-c2cc3c(s2)C(=O)N(C2CC2)CCS3(=O)=O)n1` [Example 280, 2-(4-(4-((4-(4-cyclopropyl-1,1-dioxido-5-oxo-2,3,4,5-tetrahydrothieno[2,3-f][1,4]thiazepin-7-yl)-5-(trifluoromethyl)pyrimidin-2-yl)amino)-3-ethylphenyl)piperazin-1-yl)acetamide], the pIC50 is not below 8.30.

As for `CCc1cc(C2CCN(CCF)CC2)ccc1Nc1ncc(C(F)(F)F)c(-c2cc3c(s2)C(=O)N(C2CC2)CCS3(=O)=O)n1` [Example 282, 4-cyclopropyl-7-(2-((2-ethyl-4-(1-(2-fluoroethyl)piperidin-4-yl)phenyl)amino)-5-(trifluoromethyl)pyrimidin-4-yl)-3,4-dihydrothieno[2,3-f][1,4]thiazepin-5(2H)-one 1,1-dioxide], the pIC50 was not below 8.30.

As for `CN1CCS(=O)(=O)c2cc(-c3nc(Nc4cc5c(cc4Cl)CNCC5)ncc3C3CC3)sc2C1=O` [Example 283, 7-(2-((7-chloro-1,2,3,4-tetrahydroisoquinolin-6-yl)amino)-5-cyclopropylpyrimidin-4-yl)-4-methyl-3,4-dihydrothieno[2,3-f][1,4]thiazepin-5(2H)-one 1,1-dioxide], the pIC50 was not below 8.30.

For `NC(=O)CN1CCc2cc(Nc3ncc(C(F)(F)F)c(-c4cc5c(s4)C(=O)N(C4COC4)CCS5(=O)=O)n3)c(C3CC3)cc2C1` [Example 284, 2-(7-cyclopropyl-6-((4-(4-(oxetan-3-yl)-1,1-dioxido-5-oxo-2,3,4,5-tetrahydrothieno[2,3-f][1,4]thiazepin-7-yl)-5-(trifluoromethyl)pyrimidin-2-yl)amino)-3,4-dihydroisoquinolin-2(1H)-yl)acetamide], the negative-log IC50 (pIC50) was not below 8.30.

On to `N#CCN1CCc2cc(Nc3ncc(C(F)(F)F)c(-c4cc5c(s4)C(=O)N(C4COC4)CCS5(=O)=O)n3)c(C3CC3)cc2C1` [Example 285, 2-(7-cyclopropyl-6-((4-(4-(oxetan-3-yl)-1,1-dioxido-5-oxo-2,3,4,5-tetrahydrothieno[2,3-f][1,4]thiazepin-7-yl)-5-(trifluoromethyl)pyrimidin-2-yl)amino)-3,4-dihydroisoquinolin-2(1H)-yl)acetonitrile], for which the negative logarithm of the IC50 (pIC50) is 8.00 to 8.30.

Take `CC1(CN2CCc3cc(Nc4ncc(C(F)(F)F)c(-c5cc6c(s5)C(=O)N(C5COC5)CCS6(=O)=O)n4)c(C4CC4)cc3C2)COC1` [Example 286, 7-(2-((7-cyclopropyl-2-((3-methyloxetan-3-yl)methyl)-1,2,3,4-tetrahydroisoquinolin-6-yl)amino)-5-(trifluoromethyl)pyrimidin-4-yl)-4-(oxetan-3-yl)-3,4-dihydrothieno[2,3-f][1,4]thiazepin-5(2H)-one 1,1-dioxide]: the negative logarithm of the IC50 (pIC50) is not below 8.30.

Regarding `CC(C)(O)CN1CCc2cc(Nc3ncc(C(F)(F)F)c(-c4cc5c(s4)C(=O)N(C4CC4)CCS5(=O)=O)n3)c(C3CC3)cc2C1` [Example 287, 4-cyclopropyl-7-(2-((7-cyclopropyl-2-(2-hydroxy-2-methylpropyl)-1,2,3,4-tetrahydroisoquinolin-6-yl)amino)-5-(trifluoromethyl)pyrimidin-4-yl)-3,4-dihydrothieno[2,3-f][1,4]thiazepin-5(2H)-one 1,1-dioxide], the pIC50 is not below 8.30.

With `CCc1cc(C2CCN(CC(F)(F)F)CC2)ccc1Nc1ncc(C(F)(F)F)c(-c2cc3c(s2)C(=O)N(C2CC2)CCS3(=O)=O)n1` [Example 288, 4-cyclopropyl-7-(2-((2-ethyl-4-(1-(2,2,2-trifluoroethyl)piperidin-4-yl)phenyl)amino)-5-(trifluoromethyl)pyrimidin-4-yl)-3,4-dihydrothieno[2,3-f][1,4]thiazepin-5(2H)-one 1,1-dioxide], the pIC50 is less than 7.00.

As for `O=C1c2sc(-c3nc(Nc4cc5c(cc4C4CC4)CN(C4COC4)CC5)ncc3C(F)(F)F)cc2S(=O)(=O)CCN1C1CC1` [Example 289, 4-cyclopropyl-7-(2-((7-cyclopropyl-2-(oxetan-3-yl)-1,2,3,4-tetrahydroisoquinolin-6-yl)amino)-5-(trifluoromethyl)pyrimidin-4-yl)-3,4-dihydrothieno[2,3-f][1,4]thiazepin-5(2H)-one 1,1-dioxide], the pIC50 is 8.00 to 8.30.
